Data on 48 compounds can be found in patent US9675614B2, “PRMT5 inhibitors and uses thereof” (Epizyme, Inc., priority 2012, dated 2017).

Each structure is given as a SMILES string.

PRMT5/MEP50, sequence (O14744 other isoform, or with tags, fused parts or gaps): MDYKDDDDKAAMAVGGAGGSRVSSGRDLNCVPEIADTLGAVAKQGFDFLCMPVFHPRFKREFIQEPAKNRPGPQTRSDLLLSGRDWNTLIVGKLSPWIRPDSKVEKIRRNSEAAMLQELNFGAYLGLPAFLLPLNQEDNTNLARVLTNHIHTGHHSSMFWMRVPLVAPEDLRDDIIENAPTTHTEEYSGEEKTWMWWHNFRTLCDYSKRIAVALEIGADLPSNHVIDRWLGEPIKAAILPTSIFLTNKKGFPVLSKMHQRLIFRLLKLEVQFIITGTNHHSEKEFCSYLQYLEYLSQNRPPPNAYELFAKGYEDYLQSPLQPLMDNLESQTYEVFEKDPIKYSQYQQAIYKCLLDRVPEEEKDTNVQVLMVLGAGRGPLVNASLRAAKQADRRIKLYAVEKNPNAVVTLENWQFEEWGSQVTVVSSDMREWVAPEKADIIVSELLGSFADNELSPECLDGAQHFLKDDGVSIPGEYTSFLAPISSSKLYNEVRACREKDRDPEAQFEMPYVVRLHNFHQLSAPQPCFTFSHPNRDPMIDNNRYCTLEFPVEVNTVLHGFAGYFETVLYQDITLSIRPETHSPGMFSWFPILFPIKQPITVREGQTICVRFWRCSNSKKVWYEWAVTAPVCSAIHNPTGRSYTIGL
PRMT5/MEP50, sequence (Q9BQA1 other isoform, or with tags, fused parts or gaps partner): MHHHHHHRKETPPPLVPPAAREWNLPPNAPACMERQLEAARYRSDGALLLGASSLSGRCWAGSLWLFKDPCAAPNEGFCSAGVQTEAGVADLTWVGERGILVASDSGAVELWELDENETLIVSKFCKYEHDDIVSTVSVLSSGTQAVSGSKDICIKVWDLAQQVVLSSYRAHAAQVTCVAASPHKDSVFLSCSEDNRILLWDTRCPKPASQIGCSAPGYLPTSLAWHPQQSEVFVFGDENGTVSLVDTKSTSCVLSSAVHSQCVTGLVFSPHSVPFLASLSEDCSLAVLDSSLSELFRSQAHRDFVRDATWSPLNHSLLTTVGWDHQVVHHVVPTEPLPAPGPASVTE

The test has as its target PRMT5/MEP50 (Homo sapiens (Human), UniProt O14744). The experiment in a line: PRMT5 Biochemical Assay (PRMT5/MEP50 enzyme assay on peptide substrate, 3H-SAM Flashplate). To be noted: PRMT5/MEP50 biochemical assay; read-out: Biochemical IC50.
Consider `CC(=O)NCCN1CCN(Cc2cccc(C(=O)NCC(O)CN3CCc4ccccc4C3)c2)CC1` (stereo not drawn) [Compound 156], for which the IC50 (commonly the concentration that inhibits the measured activity by half) was less than 100 nM.

As to `CN1CCOC(CNc2cc(C(=O)NC[C@H](O)CN3CCc4ccccc4C3)ccn2)C1` (stereo partly drawn) [Compound 265], the IC50 was less than 100 nM.

On to `CS(=O)(=O)N1CCC(Oc2cc(C(=O)NC[C@H](O)CN3CCc4ccccc4C3)ccn2)CC1` [Compound 204], for which the half-inhibitory concentration (IC50) was less than 100 nM.

With `O=C(NC[C@H](O)CN1CCc2ccccc2C1)c1ccnc(NCC2CCCNC2)c1` (stereo partly drawn) [Compound 236], the IC50 is less than 100 nM.

As for `CN1CCC(Nc2cc(C(=O)NC[C@H](O)CN3CCc4ccccc4C3)ccn2)C1` (stereo partly drawn) [Compound 255], the IC50 was less than 100 nM.

Take `O=C(NC[C@H](O)CN1CCc2ccccc2C1)c1cc2cccc(Cl)c2[nH]1` [Compound 276]: the IC50 is less than 100 nM.

With `O=C(NC[C@H](O)CN1CCc2ccccc2C1)c1cnc2ccccc2c1` [Compound 317], the IC50 is less than 100 nM.

As for `CS(=O)(=O)N1CC(Nc2cc(C(=O)NC[C@H](O)CN3CCc4ccccc4C3)ncn2)C1` [Compound 283], the IC50 was less than 100 nM.

Consider `Cn1nccc1Nc1cc(C(=O)NC[C@H](O)CN2CCc3ccccc3C2)ccn1` [Compound 325], for which the IC50 was less than 100 nM.

Regarding `NC(=O)CNCCOc1cccc(C(=O)NCC(O)CN2CCc3ccccc3C2)c1` (stereo not drawn) [Compound 222], the IC50 was less than 100 nM.

In the case of `CC(=O)N1CC(Nc2cc(C(=O)NC[C@H](O)CN3CCc4ccccc4C3)ccn2)C1` [Compound 279], the concentration for half-maximal inhibition (IC50) was less than 100 nM.

For the compound `O=C(NC[C@H](O)CN1CCc2ccccc2C1)c1ccc(OC2CCN(Cc3ccccc3)CC2)cc1` [Compound 330], the IC50 is less than 100 nM.

In the case of `O=C(NC[C@H](O)CN1CCc2ccccc2C1)c1cc(NC2CCNCC2)ncn1` [Compound 180], the IC50 is less than 100 nM.

`CN1CCC(N(C)c2cccc(C(=O)NCC(O)CN3CCc4ccccc4C3)c2)C1` (stereo not drawn) [Compound 132]: the 50% inhibitory concentration (IC50) is less than 100 nM.

In the case of `Cc1ccc2cc(C(=O)NC[C@H](O)CN3CCc4ccccc4C3)ccc2n1` [Compound 221, (S)—N-(3-(3,4-dihydroisoquinolin-2(1H)-yl)-2-hydroxypropyl)-2-methylquinoline-6-carboxamide], the IC50 is less than 100 nM.

With `O=C(NCC(O)CN1CCc2ccccc2C1)c1cccc(NC2CCOCC2)c1` (stereo not drawn) [Compound 16, N-(3-(3,4-dihydroisoquinolin-2(1H)-yl)-2-hydroxypropyl)-3-((tetrahydro-2H-pyran-4-yl)amino)benzamide], the IC50 was less than 100 nM.

Turning to `CS(=O)(=O)N1CCC(Nc2cncc(C(=O)NC[C@H](O)CN3CCc4ccccc4C3)c2)CC1` [Compound 301], the IC50 is less than 100 nM.

As for `CC(C)N1CCC(Nc2ccc(C(=O)NCC(O)CN3CCc4ccccc4C3)cc2)CC1` (stereo not drawn) [Compound 140], the concentration for half-maximal inhibition (IC50) was less than 100 nM.

With `COc1cc(CN2CCN(C)CC2)cc(C(=O)NCC(O)CN2CCc3ccccc3C2)c1` (stereo not drawn) [Compound 160], the IC50 was less than 100 nM.

For the compound `CN(c1cc(C(=O)NC[C@H](O)CN2CCc3ccccc3C2)ccn1)C1CCC1` [Compound 333], the IC50 was less than 100 nM.

With `COc1ccc(NC2CCOCC2)cc1C(=O)NCC(O)CN1CCc2ccccc2C1` (stereo not drawn) [Compound 77], the IC50 is less than 100 nM.

`O=C(NC[C@H](O)CN1CCc2ccccc2C1)c1ccc2c(c1)OCO2` [Compound 244]: the half-inhibitory concentration (IC50) is less than 100 nM.

`CNCCNc1cc(C(=O)NC[C@H](O)CN2CCc3ccccc3C2)ccn1` [Compound 314]: the IC50 is less than 100 nM.

In the case of `O=C(NCC(O)CN1CCc2ccccc2C1)c1ccc(NC2CCNCC2)cc1` (stereo not drawn) [Compound 138], the IC50 was less than 100 nM.

On to `CC(=O)N1CC[C@H](Nc2cccc(C(=O)NC[C@H](O)CN3CCc4ccccc4C3)c2)C1` [Compound 266], for which the IC50 was less than 100 nM.

Consider `O=C(NCC(O)CN1CCc2ccccc2C1)c1ccc(OC2CCOCC2)cc1` (stereo not drawn) [Compound 58, N-(3-(3,4-dihydroisoquinolin-2(1H)-yl)-2-hydroxypropyl)-4-((tetrahydro-2H-pyran-4-yl)oxy)benzamide], for which the IC50 was less than 100 nM.

As for `O=C(NC[C@H](O)CN1CCc2ccccc2C1)c1ccc2[nH]cnc2c1` [Compound 294], the IC50 lay within 101 to 1000 nM.

In the case of `O=C(NC[C@H](O)CN1CCc2ccccc2C1)c1c(O)ccc2ccccc12` [Compound 327], the IC50 was in the range of 101 to 1000 nM.

As to `O=C(NCC(O)CN1CCc2ccccc2C1)c1cccc(NC2CCNCC2)c1` (stereo not drawn) [Compound 94], the IC50 was less than 100 nM.

In the case of `CN1CCC(c2cccc(C(=O)NCC(O)CN3CCc4ccccc4C3)c2)C1` (stereo not drawn) [Compound 38, N-(3-(3,4-dihydroisoquinolin-2(1H)-yl)-2-hydroxypropyl)-3-(1-methylpyrrolidin-3-yl)benzamide], the IC50 is less than 100 nM.

For `COCCCOc1ccc(C(=O)NCC(O)CN2CCc3ccccc3C2)cc1` (stereo not drawn) [Compound 146], the IC50 is less than 100 nM.

Turning to `O=C(O)CN1CCN(Cc2cccc(C(=O)NCC(O)CN3CCc4ccccc4C3)c2)CC1` (stereo not drawn) [Compound 157], the IC50 lay within 101 to 1000 nM.

For `Cn1nc(NC2CCOCC2)cc1C(=O)NCC(O)CN1CCc2ccccc2C1` (stereo not drawn) [Compound 311], the IC50 was less than 100 nM.

Turning to `O=C(NC[C@H](O)CN1CCc2ccccc2C1)c1ccc2c(c1)OCCO2` [Compound 274], the concentration for half-maximal inhibition (IC50) is less than 100 nM.

As for `O=C(NCC(O)CN1CCc2ccccc2C1)c1cccc(CNC2CCOCC2)c1` (stereo not drawn) [Compound 15, N-(3-(3,4-dihydroisoquinolin-2(1H)-yl)-2-hydroxypropyl)-3-(((tetrahydro-2H-pyran-4-yl)amino)methyl)benzamide], the IC50 was less than 100 nM.

Take `CN(C)C(=O)CNCc1cccc(C(=O)NCC(O)CN2CCc3ccccc3C2)c1` (stereo not drawn) [Compound 118]: the half-inhibitory concentration (IC50) was less than 100 nM.

Regarding `CC(C)N1CCC(Nc2cccc(C(=O)NCC(O)CN3CCc4ccccc4C3)c2)CC1` (stereo not drawn) [Compound 103], the IC50 was less than 100 nM.

Turning to `Cc1ncc(NC2CCNC2)cc1C(=O)NC[C@H](O)CN1CCc2ccccc2C1` (stereo partly drawn) [Compound 310], the IC50 lay within 101 to 1000 nM.

For the compound `CC(=O)N1CCC(Oc2ccc(C(=O)NCC(O)CN3CCc4ccccc4C3)cc2)C1` (stereo not drawn) [Compound 197], the half-inhibitory concentration (IC50) is less than 100 nM.

For the compound `CS(=O)(=O)N1CCC(Nc2cc(C(=O)NC[C@H](O)CN3CCc4ccccc4C3)ccn2)C1` (stereo partly drawn) [Compound 227], the IC50 is less than 100 nM.

Consider `NC(=O)CCCN1CCN(Cc2cccc(C(=O)NCC(O)CN3CCc4ccccc4C3)c2)CC1` (stereo not drawn) [Compound 159], for which the IC50 was less than 100 nM.

As to `CC1CC(Nc2cccc(C(=O)NC[C@@H](O)CN3CCc4ccccc4C3)c2)CC(C)O1` (stereo partly drawn) [Compound 153], the IC50 is less than 100 nM.

Take `CS(=O)(=O)N1CCN(Cc2cccc(C(=O)NCC(O)CN3CCc4ccccc4C3)c2)CC1` (stereo not drawn) [Compound 91]: the concentration for half-maximal inhibition (IC50) is less than 100 nM.

As for `CC(C)(C)C(=O)N1CCC(Oc2ccc(C(=O)NC[C@H](O)CN3CCc4ccccc4C3)cc2)CC1` [Compound 322], the IC50 was less than 100 nM.

In the case of `CC(C)N1CCC(Oc2cccc(C(=O)NCC(O)CN3CCc4ccccc4C3)c2)C1` (stereo not drawn) [Compound 135], the IC50 was less than 100 nM.

Consider `O=C(NC[C@H](O)CN1CCc2ccccc2C1)c1cncc(NC2CCOCC2)c1` [Compound 298], for which the IC50 was less than 100 nM.

On to `Cc1c(NC2CCOCC2)ncnc1C(=O)NC[C@H](O)CN1CCc2ccccc2C1` [Compound 231], for which the IC50 is less than 100 nM.

For `O=C(NCC(O)CN1CCc2ccccc2C1)c1cccc(OCCN2CCOCC2)c1` (stereo not drawn) [Compound 133], the IC50 was less than 100 nM.
